# Assay results from ChEMBL document CHEMBL4725257, “Investigation into the influence of an acrylic acid acceptor in organic D-π-A sensitizers against phototoxicity” (Bioorg Med Chem, 2020).
# Key:
# HeLa [1] = test: Cytotoxicity against human HeLa cells assessed as reduction in cell viability incubated for 48 hrs measured under dark conditions by MTT assay; assay type: functional, cell-based
# HeLa [2] = test: Phototoxicity against human HeLa cells assessed as reduction in cell viability preincubated for 1 hr followed by white LED irradiation for 15 mins and measured after 48 hrs by MTT assay; assay type: functional, cell-based; settings: light or radiation study
# [3] = Drug uptake in human HeLa cells at 20 uM incubated for 1 hr at 37 degC by fluorescence based analysis; assay type: ADME, cell-based
# [4] = Drug uptake in lysosomes of human HeLa cell by fluorescence confocal microscopy; assay type: ADME, subcellular, Lysosome
# [5] = Drug uptake in human HeLa cells at 20 uM incubated for 1 hr at 4 degC by fluorescence based analysis; assay type: ADME, cell-based
# [6] = Drug uptake in mitochondria of human HeLa cell by fluorescence confocal microscopy; assay type: ADME
# [7] = Phototoxicity index, ratio of IC50 for cytotoxicity against human HeLa cells measured under dark condition to IC50 for phototoxicity against human HeLa cells upon white LED light irradiation; assay type: functional
# [8] = Photo-oxidation of L-tryptophan assessed as oxidative damage at 10 uM irradiated with white LED light at 15 mins interval for 60 mins by fluorescence based analysis; assay type: ADME; settings: 1 h
# [9] = Drug uptake in human HeLa cells at 20 uM pretreated with lipid raft endocytosis inhibitor, methyl-beta-cyclodextrin for 1 hr followed by incubation with compound for 1 hr by fluorescence based analysis; assay type: ADME, cell-based
# [10] = Drug uptake in human HeLa cells at 20 uM pretreated with clathrin-mediated endocytosis inhibitor, sucrose for 1 hr followed by incubation with compound for 1 hr by fluorescence based analysis; assay type: ADME, cell-based
# [11] = Drug uptake in human HeLa cells at 20 uM pretreated with endosome fusion inhibitor, wortmannin for 1 hr followed incubation with compound for 1 hr by fluorescence based analysis; assay type: ADME, cell-based
# [12] = Photo-oxidation of L-tryptophan assessed as oxidative damage at 10 uM irradiated with white LED light at 15 mins interval for 60 mins in presence of type 2 singlet oxygen quencher, NaN3 by fluorescence based analysis; assay type: ADME; settings: 1 h
# [13] = Drug uptake in human HeLa cell membrane by fluorescence confocal microscopy; assay type: ADME, cell membranes
SMILES,Drug uptake [3] [pmol],Drug uptake [4],Drug uptake [5] [pmol],Drug uptake [6],Drug uptake [9] [pmol],Drug uptake [10] [pmol],Drug uptake [11] [pmol],Drug uptake [13],IC50 (HeLa [1]) [µM],IC50 (HeLa [2]) [µM],Ratio IC50 [7],Activity [8],Activity [12]
N#CC(C#N)=Cc1ccc(-c2ccc(-c3ccc(N(c4ccccc4)c4ccccc4)cc3)s2)s1,–,–,–,–,–,–,–,–,> 100,> 74.4,–,–,–
COC(=O)/C(C#N)=C/c1ccc(-c2ccc(-c3ccc(N(c4ccccc4)c4ccccc4)cc3)s2)s1,–,–,–,–,–,–,–,–,> 100,> 100,–,–,–
O=C(O)C(=Cc1ccc(-c2ccc(-c3ccc(N(c4ccccc4)c4ccccc4)cc3)s2)s1)C(=O)O,53,Active,36,Active,–,–,–,–,61.8,0.68,91,Active,Not Active
C[n+]1ccc(/C=C/c2ccc(-c3ccc(-c4ccc(N(c5ccccc5)c5ccccc5)cc4)s3)s2)cc1.[I-],747,Active,344,Active,555,591,649,Active,3.3,0.94,3.5,Active,–

# More lines, main results first:
Drug uptake [3] [pmol],Drug uptake [4],Drug uptake [5] [pmol],Drug uptake [6],Drug uptake [9] [pmol],Drug uptake [10] [pmol],Drug uptake [11] [pmol],Drug uptake [13],SMILES,IC50 (HeLa [1]) [µM],IC50 (HeLa [2]) [µM],Ratio IC50 [7],Activity [8],Activity [12]
80,Active,40,Active,–,–,–,–,O=C(O)/C=C/c1ccc(-c2ccc(-c3ccc(N(c4ccccc4)c4ccccc4)cc3)s2)s1,13.8,0.046,460,Active,–
299,Active,64,Active,82,188,205,–,O=C(O)c1ccc(-c2ccc(-c3ccc(N(c4ccccc4)c4ccccc4)cc3)s2)s1,> 100,7.8,>12,Active,–
232,Active,44,Active,98,199,225,–,O=C(O)CCc1ccc(-c2ccc(-c3ccc(N(c4ccccc4)c4ccccc4)cc3)s2)s1,43.4,2.4,18,Active,–
105,Active,68,Active,–,–,–,–,c1ccc(N(c2ccccc2)c2ccc(-c3ccc(-c4cccs4)s3)cc2)cc1,> 100,> 100,–,Active,–
